Results on two molecules are retold here after patent US9877980B2, “Method and composition for treatment or prevention of type 2 diabetes and hyperlipidemia” (Chun-Ching Shih, priority 2016, dated 2018).

Molecules are shown by their SMILES. Marks after values point to notes of the source that are not given here.

Holding throughout (assay type): in vivo
In test [1] the test system is C57BL/6J mice on high-fat diet (HFD). As to the kind of experiment: Hepatic lipids in HFD mice. The settings on record: 4 weeks. The method, then:
(§1) The following experiment was performed and approved by the guidelines of the Institutional Animal Care and Use Committee of Central Taiwan University of Science and Technology. The 4-week old male C57BL/6J mice (total amount n=63) were purchased from the National Laboratory Animal Breeding and Research Center (Taipei, Taiwan). After acclimatization for one week, all of the mice were divided randomly into the control (CON) group and the high-fat diet (HFD) group. For the following 12 weeks, the CON group (n=9) was kept on a low-fat diet (Diet 12450B, Research Diets, Inc., New Brunswick, N.J., USA), while the HFD group (n=54) was exposed to a high-fat diet (Diet 12451, Research Diets, New Brunswick, N.J., USA). The low-fat diet was composed of protein 20%, carbohydrate 70% and fat 10%, whereas the high-fat diet was composed of protein 20%, carbohydrate 35%, and fat 45% (of total energy, % kcal). After HFD exposure for 8 weeks, the HFD group was further randomly subdivided into 6 groups (n=9 per group) to receive different treatments by oral gavage once daily for four weeks and on HFD. […] The HF+B1, HF+B2, and […] are collectively termed BB-treated HFD groups in the following examples. The CON mice were administered vehicle. After dosing for 4 weeks, the mice were given no food at night and sacrificed after 12 h of fasting on the next day. All of the individual tissues were collected and weighed, and portions were instantly frozen using liquid nitrogen and kept at −80° C. for subsequent target gene analysis. Blood samples (0.8 mL) were collected for analysis of blood parameters.
For hepatic lipid extraction, a 0.375 g liver samples were homogenized with 1 mL distill water for 5 minutes. The dried pellet was finally resuspended in 0.5 mL ethanol and analyzed using a triglycerides kit as used for analyzing the serum lipids set forth above.

The test system of test [2] is epididymal adipocyte of HFD mice. The test can be described thus: Histology of epididymal white adipose tissue (adipocyte hypertrophy). The note with it: 4 weeks, three measurements. The protocol:
as §1
(§2) Small pieces of epididymal white adipose tissue and liver tissue were fixed with formalin (200 g/kg) neutral buffered solution and embedded in paraffin. Sections of 8 μm […] were cut and stained with hematoxylin and eosin. For microscopic examination, a microscope (Leica, DM2500) was used, and the images were taken using a Leica Digital Camera (DFC-425-C).
Adipocyte hypertrophy, the pathological enlargement of adipocytes, is often found in subjects with type 2 diabetes and hyperlipidemia. To verify the therapeutic effect of the compound of formula I on adipocyte hypertrophy, morphology of the EWAT for the CON group and the BB-treated HFD groups was examined. Micrographs of the EWAT sections for each group were analyzed to determine the mean area of an epididymal adipocyte using the software ImageJ.

Test [3] deals with C57BL/6J mice on high-fat diet (HFD). As to the kind of experiment: Absolute tissue weight, body weight, weight gain and food intake in HFD mice. The note with it: 4 weeks. The method, then:
as §1
Body weight of each mouse was monitored and measured daily at the same time throughout the experimentation. The difference in body weight between two consecutive days is defined as body weight gain. The food pellets for mice were weighed and put into the food container. Unconsumed pellets of high-fat diet were discarded each day and fresh pellets of high-fat diet were provided to ensure food quality throughout the experimentation. The high-fat food pellets were stored at 4° C.

The test system of test [4] is hepatocytes of HFD mice. As to the kind of experiment: Histology of liver tissue (hepatocellular ballooning). The settings on record: 4 weeks, grade 0 absence, 1 a few cells. The method, then: as §1, §2
Based on previous report, the designation of histological hepatocellular ballooning findings include grade 0 for absence of degeneration, grade 1 for degeneration in a few cells, and […] for degeneration in many cells.

The test system of test [5] is C57BL/6J mice on high-fat diet (HFD). The test can be described thus: Blood parameters (glucose, insulin, TG, FFA, TC, leptin, adiponectin) in HFD mice. The note with it: 4 weeks. The method, then: as §1, with “For the following 12 weeks, the CON group (n=9) was kept on a low-fat diet (Diet 12450B, Research Diets, Inc., New Brunswick, N.J., USA), while the HFD group (n=54) was exposed to a high-fat diet (Diet 12451, Research Diets, New Brunswick, N.J., USA). The low-fat diet was composed of protein 20%, carbohydrate 70% and fat 10%, whereas the high-fat diet was composed of protein 20%, carbohydrate 35%, and fat 45% (of total energy, % kcal).” left out
A portion of the blood samples obtained from the retro-orbital sinus of fasted mice were immediately used to measure blood glucose levels using Sidekick glucose analyzer (YSI 1500, YSI Incorporated, Yellow Springs, USA) according to the glucose oxidase method. Heparin (30 units/mL, Sigma) was added into other portions of the blood samples. […] Concentrations of plasma triglycerides (TG), total cholesterol (TC), and free fatty acids (FFA) were determined using commercial assay kits according to the manufacturer's instructions (Triglycerides-E test, Cholesterol-E test, and FFA-C test, Wako Pure Chemical, Osaka, Japan). Plasma insulin, leptin, and adiponectin levels were assessed using commercial assay kits according to the manufacturer's instructions (mouse insulin ELISA kit, Mercodia, Uppsala, Sweden; mouse leptin ELISA kit, Morinaga, Yokohama, Japan; Mouse Adiponectin ELISA kit, Crystal Chem International, Downers Grove, Ill., USA).

Regarding `CN(CCOc1ccc(CC2SC(=O)NC2=O)cc1)c1ccccn1` (centres unmarked) [Rosi, rosiglitazone, reference compound], in test [1] (10 mg/kg/day oral gavage), the “Liver lipids Total lipid” value is listed as 70.1 ± 8.2^d mg/g and the “Liver lipids Triacylglycerol” value was 52.1 ± 7.7^d μmol/g. The “mean area of an epididymal adipocyte” value in test [2] (10 mg/kg/day oral gavage) was determined as 5886.4 ± 58.7 μm^2. In test [3] (10 mg/kg/day oral gavage), the “Absolute tissue weight BAT” value is reported as 0.206 ± 0.012 g, the “Absolute tissue weight EWAT” value is reported as 0.919 ± 0.097^d g, the “Absolute tissue weight Liver” value came out at 0.886 ± 0.031 g and the “Absolute tissue weight MWAT” value stood at 0.302 ± 0.029 g. In test [3] (10 mg/kg/day oral gavage), the “Absolute tissue weight RWAT” value is 0.224 ± 0.032^f g, the “Absolute tissue weight Skeletal muscle” value was 0.960 ± 0.078 g, the “Absolute tissue weight Visceral fat” value is 1.143 ± 0.124^e g and the Body weight amounted to 28.61 ± 1.51 g. In test [3] (10 mg/kg/day oral gavage), this molecule displayed a Food intake of 2.11 ± 0.06 g/day/mouse and a Weight gain of 0.38 ± 0.32 g. Besides, in test [4] (10 mg/kg/day oral gavage), the “hepatocellular ballooning mean score” value stood at 0.8±0.2. Besides, in test [5] (10 mg/kg/day oral gavage), the “Blood parameters Adiponectin” value is listed as 3.058 ± 0.040^f μg/mL, the “Blood parameters FFA” value is on record as 1.08 ± 0.11^e mEq/L, the “Blood parameters Leptin” value is recorded as 1.661 ± 0.013^f ng/mL and the “Blood parameters TC” value is 111.5 ± 2.3^f mg/dL.

As to `CC(C)OC(=O)C(C)(C)Oc1ccc(C(=O)c2ccc(Cl)cc2)cc1` [Feno, fenofibrate, reference compound], in test [1] (250 mg/kg/day oral gavage), the “Liver lipids Total lipid” value is 62.4 ± 3.9^f mg/g and the “Liver lipids Triacylglycerol” value was 43.8 ± 5.6^f μmol/g. Moreover, in test [2] (250 mg/kg/day oral gavage), the “mean area of an epididymal adipocyte” value turned out to be 6982.3±309.7 μm^2. Moreover, in test [3] (250 mg/kg/day oral gavage), the “Absolute tissue weight BAT” value stood at 0.139 ± 0.011 g, the “Absolute tissue weight EWAT” value is listed as 0.763 ± 0.116^f g, the “Absolute tissue weight Liver” value is on record as 1.669 ± 0.033^f g and the “Absolute tissue weight MWAT” value worked out at 0.264 ± 0.056 g. Moreover, in test [3] (250 mg/kg/day oral gavage), the “Absolute tissue weight RWAT” value is reported as 0.173 ± 0.032^f g, the “Absolute tissue weight Skeletal muscle” value is listed as 0.990 ± 0.078 g, the “Absolute tissue weight Visceral fat” value is reported as 0.936 ± 0.147^f g and the Body weight stood at 26.92 ± 0.96 g. In test [3] (250 mg/kg/day oral gavage), the Weight gain is reported as −0.58 ± 0.48^d g. Further, the “hepatocellular ballooning mean score” value in test [4] (250 mg/kg/day oral gavage) is recorded as 0.6±0.1. Further, in test [5] (250 mg/kg/day oral gavage), the “Blood parameters Adiponectin” value is listed as 3.101 ± 0.028^f μg/mL, the “Blood parameters FFA” value is given as 0.91 ± 0.08^f mEq/L, the “Blood parameters Leptin” value is reported as 1.206 ± 0.015^f ng/mL and the “Blood parameters TC” value was 104.5 ± 5.5^f mg/dL.
